Values of other authors, collected in patent US20050154022A1, “4-aryl piperidines” (H. Lundbeck A/S, priority 2004, published 2005).

Key:
Conditions in all cases: see Borowsky et al. (2002)
guinea pig = test system: guinea pig
rat [1] = test system: rat
rat [2] = test system: rat; remark: listed apart in the source

COCC1=C(C(=O)OC)[C@H](c2ccc(F)c(F)c2)N(C(=O)NCCCN2CCC(c3cccc(NC(C)=O)c3)CC2)C(=O)N1 [SNAP-7941]
effect in guinea pig maternal-separation vocalization test (animal model of depression/anxiety) (guinea pig): effects similar to clinically used antidepressants and anxiolytics
effect in rat forced-swim test (animal model of depression/anxiety) (rat [1]): effects similar to clinically used antidepressants and anxiolytics
effect in rat social interaction test (animal model of depression/anxiety) (rat [2]): effects similar to clinically used antidepressants and anxiolytics
